Test results taken from EP0391411A2, “3'-Substituted methyl nucleosides as antiviral agents” (Bristol-Myers Squibb Company, priority 1989, dated 1990).

Assays:
[1] = system: HIV (LAV strain); assay: Anti-HIV/LAV activity in CEM-F cells, p-24 gag protein ELISA; format: cell-based; conditions: Human immunodeficiency virus 1, 192 h, eight days, p-24 gag protein in supernatant, read-out: HIV (ID50)
Procedure: The anti-HIV/LAV activity was measured in cultures of CEM-F cells. The CEM cells were infected with approximately 30 TCID₅₀ (50% tissue culture infectious dose) of HIV (LAV strain). The cells were then incubated for 45 minutes at 37°C. The test compounds, in culture medium, were added at various concentrations to the infected cells and then incubated for a further eight days. After eight days, the antiviral activity was evaluated in the culture media supernatant for p-24 gag protein by an enzyme capture assay (ELISA). The antiviral activity was expressed as the dose that inhibits 50% of the virus expression (ID₅₀ in µM) as detected by the assay described.

[2] = system: Murine leukemia virus (MuLV); assay: UV-XC plaque assay against murine retroviruses; format: cell-based; conditions: SC1, SC-1 cells
Procedure: The compounds were evaluated for antiviral activity against Murine leukemia virus (MuLV) strains using the UV-XC plaque assay (Rowe, et al, "Virology", 42:1136, 1970).
The MuLV strains were grown in feral mouse cells (SC-1) and used for antiviral tests using the UV-XC plaque assay. Briefly, SC-1 cells are grown as monolayers in 4-well tissue culture plates and inoculated with approximately 50-100 plaque forming units of MuLV in 0.5 mL of 5% EMEM containing 20 ug/mL DEAE/Dextran. After 1 hour adsorption, the inoculum is removed and 5 mL of 5% EMEM containing three-fold dilutions of the appropriate drug are added. Five days later, the cultures are UV-irradiated with an ultraviolet lamp and rat XC sarcoma cells are added to the cultures. Three to four days after UV-irradiation, the cell cultures are stained with Giemsa stain and the plaques are enumerated. Antiviral activity is expressed in terms of the reduction in the mean number of UV-XC plaques counted in the drug treated, virus-infected cultures compared with mean number of plaques counted in untreated, virus-infected control cultures.

| IC50 [1] | IC50 [2] | Compound |
| --- | --- | --- |
| 1 µM | 0.0066 µM | Cc1cn([C@H]2C[C@H](N=[N+]=[N-])[C@@H](CO)O2)c(=O)[nH]c1=O [AZT, 3′-Azido-3′-deoxythymidine, reference compound] |
| > 10 µM | 17.7 µM | Cc1cn([C@H]2C[C@H](CO)[C@@H](CO)O2)c(=O)[nH]c1=O [Example 4², 1-(2,3-Dideoxy-3-C-hydroxymethyl-β-D-erythro-pentofuranosyl)thymine] |
| – | > 32 µM | Cc1cn([C@@H]2C[C@H](CO)[C@@H](CO)O2)c(=O)[nH]c1=O [Example 4³, 1-(2,3-Dideoxy-3-C-hydroxymethyl-α-D-erythropentofuranosyl)thymine] |
| 0.8 µM | > 100 µM | Nc1ccn([C@@H]2O[C@H](CO)[C@@H](CO)[C@H]2O)c(=O)n1 [Example 8, 1-(3-Deoxy-3-C-hydroxymethyl-β-D-ribofuranosyl)cytosine] |
| > 10 µM | 83 µM | O=c1ccn([C@H]2C[C@H](CO)[C@@H](CO)O2)c(=O)[nH]1 [Example 12, 1-(2,3-Dideoxy-3-C-hydroxymethyl-β-D-erythro-pentofuranosyl)uracil] |
| > 0.1 µM | 0.06 µM | Nc1ccn([C@H]2C[C@H](CO)[C@@H](CO)O2)c(=O)n1 [Example 16², 1-(2,3-Dideoxy-3-C-hydroxymethyl-β-D-erythro-pentofuranosyl)cytosine] |
| 4.7 µM | – | Nc1ccn([C@@H]2C[C@H](CO)[C@@H](CO)O2)c(=O)n1 [Example 16³, 1-(2,3-Dideoxy-3-C-hydroxymethyl-α-D-erythro-pentofuranosyl)cytosine] |
| > 10 µM | – | Nc1ncnc2c1ncn2[C@H]1C[C@H](CO)[C@@H](CO)O1 [Example 25, 9-[2,3-Dideoxy-3-C-hydroxymethyl-β-D-erythro-pentofuranosyl]adenine] |
| > 10 µM | 5 µM | O=c1[nH]cnc2c1ncn2[C@H]1C[C@H](CO)[C@@H](CO)O1 [Example 26, 9-(2,3-Dideoxy-3-C-hydroxymethyl-β-D-erythro-pentofuranosyl)hypoxanthine] |
